Laboratory results taken from patent publication US20080234199A1, “Chemical Compounds” (Smithkline Beecham Corporation, priority 2005, published 2008).

melting point [°C] | SMILES
280 to 281 | CCC(=C(c1ccc(O)cc1)c1ccc(O)cc1)c1ccc(/C=C/C(=O)O)cc1 [Example 1, (2E)-3-{4-[1-ethyl-2,2-bis(4-hydroxyphenyl)ethenyl]phenyl}-2-propenoic acid]
158 to 159 | CCC(=C(c1ccc(O)cc1)c1ccc(O)cc1)c1ccc(OCCO)c(OC)c1 [Example 27, 4,4′-{2-[4-[(2-hydroxyethyl)oxy]-3-(methyloxy)phenyl]-1-butene-1,1-diyl}diphenol]
